# Reference: patent publication US8071650B2, “Thiourea derivatives and the pharmaceutical compositions containing the same” (Pacific Corporation, priority 2000, dated 2011)
# Read-outs that look alike come from different tables or passages of the source.
# Tests used:
# vanilloid receptor = molecular target: T1, vanilloid receptor (Rattus norvegicus, UniProt O35433); test: 45Ca influx test, antagonistic activity against capsaicin (Calcium Uptake Test, IC50); assay type: cell-based
# T1 construct: DRG nerve cells from the primary culture of 2-3 days were equilibrated; endogenous in cells; host or cells: primary culture of dorsal root ganglion neurons from neonatal SD rats
# T1 sequence (O35433 whole entry): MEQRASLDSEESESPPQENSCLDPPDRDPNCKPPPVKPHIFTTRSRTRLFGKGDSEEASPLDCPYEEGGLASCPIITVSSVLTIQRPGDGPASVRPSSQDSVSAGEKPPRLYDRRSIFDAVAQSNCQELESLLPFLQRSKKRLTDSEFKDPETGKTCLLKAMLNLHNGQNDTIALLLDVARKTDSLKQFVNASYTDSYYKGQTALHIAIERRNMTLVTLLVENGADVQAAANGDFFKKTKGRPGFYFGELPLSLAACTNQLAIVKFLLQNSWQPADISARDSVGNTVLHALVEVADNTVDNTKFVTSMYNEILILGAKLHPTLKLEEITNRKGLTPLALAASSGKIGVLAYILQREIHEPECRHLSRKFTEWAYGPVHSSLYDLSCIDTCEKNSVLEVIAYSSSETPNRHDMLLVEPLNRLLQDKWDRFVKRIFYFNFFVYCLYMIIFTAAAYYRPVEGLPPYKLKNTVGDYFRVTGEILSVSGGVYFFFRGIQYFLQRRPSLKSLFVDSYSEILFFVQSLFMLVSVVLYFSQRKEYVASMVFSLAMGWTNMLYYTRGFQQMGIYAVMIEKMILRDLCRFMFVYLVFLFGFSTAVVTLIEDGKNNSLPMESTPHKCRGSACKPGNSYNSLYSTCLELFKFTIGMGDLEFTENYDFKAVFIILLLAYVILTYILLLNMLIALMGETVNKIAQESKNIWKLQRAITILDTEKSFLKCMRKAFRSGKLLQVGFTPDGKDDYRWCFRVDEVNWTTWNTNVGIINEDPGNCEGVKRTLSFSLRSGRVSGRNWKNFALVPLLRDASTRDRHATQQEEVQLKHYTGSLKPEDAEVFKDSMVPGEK
# Experimental: 1) Separation of Spinal Dorsal Root Ganglia (DRG) in Newborn Rats and Primary Culture Thereof
# Neonatal(2-day old or younger than 2-day old) SD rats were put in ice for 5 minutes to anesthetize and disinfected with 70% ethanol. […] The DRG were incubated sequentially at 37° C. for 30 min in 200 U/ml collagenase and 2.5 mg/ml trypsin, separately. The ganglia were washed twice with DME/F12 medium supplemented with 10% horse serum, triturated through a fire-polished Pasteur pipette, filtered through Nitex 40 membrane to obtain single cell suspension. This was subjected to centrifugation, then re-suspended in cell culture medium at certain level of cell density. As the cell culture medium, DME/F12 medium supplemented with 10% horse serum, diluted 1:1 with identical medium conditioned by C6 glioma cells (2 days on a confluent monolayer) was used, and NGF(Nerve Growth Factor) was added to final concentration of 200 ng/ml. After the cells were grown 2 days in medium where cytosine arabinoside (Ara-C, 100 μM) was added to kill dividing nonneuronal cells, medium was changed to one without Ara-C. The resuspended cells were plated at a density of 1500-1700 neurons/well onto Terasaki plates previously coated with 10 μg/ml poly-D-ornithine.
# 2) ^45Ca Influx Experiments
# DRG nerve cells from the primary culture of 2-3 days were equilibrated by washing 4 times with HEPES (10 mM, pH 7.4)-buffered Ca^2+, Mg^2+-free HBSS (H-HBSS). The solution in each well was removed from the individual well. Medium containing the test compound plus capsaicin (final concentration 0.5 μM) and ^45Ca (final concentration 10 μCi/ml) in H-HBSS was added to each well and incubated at room temperature for 10 min. Terasaki plates were washed six times with H-HBSS and dried in an oven. To each well, 0.3% SDS (10 μl) was added to elute ^45Ca. After the addition of […] of scintillation cocktail into each well, the amount of ^45Ca influx into neuron was measured by counting radioactivity.
# Male ICR mice [1] = test: Analgesic activity test: mouse writhing test by inducing with phenyl-p-quinone; assay type: in vivo; conditions: ip, 30 min before phenyl-p-quinone, read-out: Analgesic effect (% Inhibition); for inhibition in vivo at 10 mg/kg: dose 10 mg/kg intraperitoneally; for inhibition in vivo at 3 mg/kg: dose 3 mg/kg intraperitoneally
# Experimental: (3) Analgesic Activity Test: Mouse Writhing Test by Inducing with phenyl-p-quinone
# Male ICR mice (mean body weight 25 g) were maintained in a controlled lighting environment (12 h on/12 h off) for experiment. Animals received an intraperitoneal injection of 0.3 ml of the chemical irritant phenyl-p-quinone (dissolved in saline containing 5% ethanol to be a dose of 4.5 mg/kg) and 6 min later, the number of abdominal constrictions was counted in the subsequent 6 min period. Animals (10 animals/group) received 0.2 ml of test compounds solution in vehicle of ethanol/Tween 80/saline (10/10/80) intraperitoneally 30 min before the injection of phenyl-p-quinone. A reduction in the number of writhes responding to the test drug compound relative to the number responding in saline control group was considered to be indicative of an analgesic effect Analgesic effect was calculated by % inhibition equation (% inhibition=(C−T)/C×100), wherein C and T represent the number of writhes in control and compound-treated group, respectively (Table 2).
# Male ICR mice [2] = test: Antiinflammatory activity test: TPA-induced mouse ear edema test; assay type: in vivo; conditions: dose 1 mg/ear topically, ear weight 24 h after TPA
# Experimental: (4) Antiinflammatory Activity Test: TPA(12-O-tetraecanoylphorbol 13-acetate)-induced mouse ear edema test
# Male ICR mice(body weight 25-30 g), 10 animals/group, were treated topically on the right ear with 30 μl of TPA (2.5 μg) solution in acetone and after 15 min, 30 μl of acetone or test compound solution in acetone was applied topically. After six hours, an identical treatment was applied again. After twenty four hours following the treatment of TPA, the animals were sacrificed and ear tissue was dissected using 6 mm-diameter punch. Ear tissue dissected were weighed to the nearest 0.1 mg on an electrobalance. The increased weight of the tissue compared to control group was considered as an index of inflammation. The percent inhibition is defined by the following equation:
# % inhibition=(C−T)/C×100, wherein C and T represent an increase of ear weight in TPA-treated and TPA+drug-treated group, respectively (Table 3).
# Male SD rats = test: Ulcer test: ethanol-induced anti-ulcer test; assay type: in vivo, rat; conditions: dose 30 mg/kg orally, 1 hour before 99% ethanol
# Experimental: (5) Ulcer Test: Ethanol-induced Anti-ulcer Test
# Male SD rats (body weight 180-200 g), 5 animals/group, were fasted for 24 hours, and their stomaches were damaged. The rats were administered with 10 ml/kg of test drug suspended in 1% methylceflulose orally and, after 1 hour, 1 ml of 99% ethanol orally. After 1 hour without food and water, the rats were sacrificed by cervical dislocation and stomaches thereof were removed. The removed stomaches were incised along the greater curvature and opened.
# [3] = Table 1a, neonatal SD rat DRG neurons, inhibition of response to capsaicin 0.5 μM
smiles,measurement,setting,value
"CC(C)(C)c1ccc(CNC(=S)NCc2ccc(NS(N)(=O)=O)cc2)cc1 [Example 196, 1-(4-t-butylbenzyl)-3-(4-aminosulfonylaminobenzyl)thiourea]",IC50,vanilloid receptor,150 nM
"CC(C)(C)c1ccc(CNC(=S)NCc2c(F)c(F)c(NS(C)(=O)=O)c(F)c2F)cc1 [Example 32, 1-(4-t-butylbenzyl)-3-(2,3,5,6-tetrafluoro-4-methanesulfonylaminobenzyl)thiourea]",IC50,vanilloid receptor,31 nM
"CC(C)(C)c1ccc(CNC(=S)NCc2cccc(NS(C)(=O)=O)c2)cc1 [Example 52, 1-(4-t-butylbenzyl)-3-(3-methanesulfonylaminobenzyl)thiourea]",inhibition in vivo at 10 mg/kg,Male ICR mice [1],94%
"CC(C)(C)c1ccc(CNC(=S)NCc2c(F)ccc(NS(C)(=O)=O)c2F)cc1 [Example 51, 1-(4-t-butylbenzyl)-3-(2,6-difluoro-3-methanesulfonylaminobenzyl)thiourea]",IC50,vanilloid receptor,700 nM
"CC(C)(C)c1ccc(CNC(=S)NCc2cc(F)c(NS(C)(=O)=O)cc2F)cc1 [Example 33, 1-(4-t-butylbenzyl)-3-(2,5-difluoro-4-methanesulfonylaminobenzyl)thiourea]",IC50,vanilloid receptor,110 nM
same,Anti-inflammtory effect (% Inhibition),Male ICR mice [2],66%
same,Anti-ulcerous effect (% inhibition),Male SD rats,31%
COC(=O)c1cccc(CNC(=S)NCc2ccc(C(C)(C)C)cc2)c1 [Example 30],IC50,vanilloid receptor,1500 nM
CC(C)(C)c1ccc(CNC(=S)NCc2ccc(NS(C)(=O)=O)cc2)cc1 [Example 44],inhibition in vivo at 3 mg/kg,Male ICR mice [1],92%
same,Anti-inflammtory effect (% Inhibition),Male ICR mice [2],83%
same,Anti-ulcerous effect (% inhibition),Male SD rats,36%
"Oc1cc2c(cc1O)CN(C(=S)NCCc1ccc(Cl)cc1)CCC2 [Capsazepine, capsazepine, reference compound]",IC50,vanilloid receptor,590 nM
"Cn1cccc1CCNC(=S)NCc1ccc(C(C)(C)C)cc1 [Example 5, 1-(4-t-butylbenzyl)-3-[2-(1-methyl-1H-pyrrol-2-yl)ethyl]thiourea]",IC50,vanilloid receptor,1100 nM
same,inhibition in vivo at 10 mg/kg,Male ICR mice [1],53%
"CC(C)(C)c1ccc(CNC(=S)NCc2ccc(NS(C)(=O)=O)c(C(=O)O)c2)cc1 [Example 19, 1-(4-t-butylbenzyl)-3-(3-carboxyl-4-methanesulfonylaminobenzyl)thiourea]",IC50,vanilloid receptor,5.8 nM
COC(=O)c1cc(CNC(=S)NCc2ccc(C(C)(C)C)cc2)ccc1NS(C)(=O)=O [Example 18],IC50,vanilloid receptor; [3],720 nM
COc1cc(CCCN(Cc2ccccc2)/C(S)=N/CCc2ccccc2)ccc1O [Example 152],IC50,vanilloid receptor,950 nM
COc1cc(CCCN(C(=S)NCCc2ccccc2)C(c2ccccc2)c2ccccc2)ccc1O [Example 161],IC50,vanilloid receptor,460 nM
same,inhibition in vivo at 1 mg/kg,Male ICR mice [1]; dose 1 mg/kg intraperitoneally,73%
"CC(C)(C)c1ccc(CCC(=O)NCc2ccc(NS(C)(=O)=O)c(F)c2)cc1 [Example 193, N-(3-fluoro-4-methanesulfonylaminobenzyl) 3-(4-t-butylphenyl)propionamide]",IC50,vanilloid receptor,210 nM
"CNS(=O)(=O)Nc1ccc(C/N=C(\S)NCc2ccc(C(C)(C)C)cc2)cc1 [Example 194, 1-(4-t-butylbenzyl)-3-(4-methylaminosulfonylaminobenzyl)thiourea]",IC50,vanilloid receptor,310 nM
"COc1ccc2c(c1)c(CC(=O)O)c(C)n2C(=O)c1ccc(Cl)cc1 [Indomethacin, indomethacin, reference compound]",inhibition in vivo at 3 mg/kg,Male ICR mice [1],94%
same,Anti-inflammtory effect (% Inhibition),Male ICR mice [2],74%
CC(C)(C)c1ccc(CNC(=S)NCCc2ccccn2)cc1 [Example 83],IC50,vanilloid receptor,1100 nM
same,inhibition in vivo at 10 mg/kg,Male ICR mice [1],85%
CC(C)(C)c1ccc(CNC(=S)NCCc2cccc(F)c2)cc1 [Example 96],IC50,vanilloid receptor,590 nM
same,inhibition in vivo at 10 mg/kg,Male ICR mice [1],58%
"CNC(=C[N+](=O)[O-])NCCSCc1ccc(CN(C)C)o1 [Ranitidine, ranitidine, reference compound]",Anti-ulcerous effect (% inhibition),Male SD rats,4%
Cn1cc(NS(C)(=O)=O)cc1CNC(=S)NCc1ccc(C(C)(C)C)cc1 [Example 134],IC50,vanilloid receptor,810 nM
CC(C)(C)c1ccc(CNC(=S)NCc2cc(F)ccc2F)cc1 [Example 90],IC50,vanilloid receptor,420 nM
CC(C)(C)c1ccc(CNC(=NC#N)NCc2ccc(NS(C)(=O)=O)cc2)cc1 [Example 178],IC50,vanilloid receptor,110 nM
"CC(C)(C)c1ccc(CNC(=S)NCCc2ccc(NS(C)(=O)=O)cc2)cc1 [Example 36, 1-(4-t-butylbenzyl)-3-(4-methanesulfonylaminophenethyl)thiourea]",IC50,vanilloid receptor,1100 nM
"CC(C)(C)c1ccc(CNC(=S)NCc2ccc(NS(C)(=O)=O)c(F)c2)cc1 [Example 13, 1-(4-t-butylbenzyl)-3-(3-fluoro-4-methanesulfonylaminobenzyl)thiourea]",IC50,vanilloid receptor; [3],37 nM
same,inhibition in vivo at 10 mg/kg,Male ICR mice [1],82%
same,Anti-inflammtory effect (% Inhibition),Male ICR mice [2],74%
same,Anti-ulcerous effect (% inhibition),Male SD rats,30%
CC(C)(C)c1ccc(CNC(=S)NCc2ccc(NS(C)(=O)=O)c(Cl)c2)cc1 [Example 17],IC50,vanilloid receptor; [3],8.4 nM
same,inhibition in vivo at 10 mg/kg,Male ICR mice [1],98%
same,Anti-inflammtory effect (% Inhibition),Male ICR mice [2],80%
same,Anti-ulcerous effect (% inhibition),Male SD rats,58%
"CS(=O)(=O)Nc1ccc(CNC(=S)NCCc2ccccc2)cc1F [Example 15, 1-phenethyl-3-(3-fluoro-4-methanesulfonylaminobenzyl)thiourea]",IC50,vanilloid receptor,1200 nM
"Cc1ncsc1CCNC(=S)NCc1ccc(C(C)(C)C)cc1 [Example 73, 1-(4-t-butylbenzyl)-3-[2-(4-methylthiazol-5-yl)ethyl]thiourea]",IC50,vanilloid receptor,1200 nM
same,inhibition in vivo at 10 mg/kg,Male ICR mice [1],88%
same,Anti-inflammtory effect (% Inhibition),Male ICR mice [2],77%
same,Anti-ulcerous effect (% inhibition),Male SD rats,22%
"CC(C)(C)c1ccc(CNC(=S)NCc2cc(F)c(N)cc2F)cc1 [Example 9, 1-(4-amino-2,5-difluorobenzyl)-3-(4-t-butylbenzyl)thiourea]",IC50,vanilloid receptor,230 nM
"CC(=O)OCc1cc(C(C)(C)C)ccc1CNC(=S)Nc1ccc(NS(C)(=O)=O)cc1 [Example 70, 1-(2-acetoxymethyl-4-t-butylbenzyl)-3-(4-methanesulfonylaminobenzene)thiourea]",IC50,"vanilloid receptor; Table 1b, neonatal SD rat DRG neurons, inhibition of response to capsaicin 0.5 μM",580 nM
